The source of these data is patent US20240025906A1 (NEURON23, INC., priority 2022, published 2024).

pIC50, pKd: −log10 of the molar value. Where only a bound is given, the exact number is not on record here.

Assay [1] concerns JAK1/TYK2 pSTAT5 (Tyr694/699) in THP-1 cell line. As to the kind of experiment: IFNa-stimulated JAK1/TYK2 pSTAT5 (Tyr694/699) inhibition cellular assay, AlphaLISA. It is filed as cell-based. Conditions: Homo sapiens; THP-1 cells, IFNa-stimulated, AlphaLISA (Assay B); read-out: Cellular_THP1_IFNa-pSTATS_TYK2. In short, it runs like this: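 An eight-point 6-fold titration of compound (0.04–10000 nM final) is given to THP-1 cells for 1 h before 30 min of IFNa exposure. Phospho-STAT5 is read by AlphaLISA at 615 nm. IC50 values are derived by logistic regression with bottom set to 0 and Hill slope set to −1.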

For a further assay, the target named is T1, TYK2 JH2 (Homo sapiens, UniProt P29597).
T1 construct: purchased DiscoverX (KINOMEscan KdELECT service); host or cells: E. coli BL21-derived (T7 phage display) or HEK-293
T1 sequence (P29597 589-875 limits assumed): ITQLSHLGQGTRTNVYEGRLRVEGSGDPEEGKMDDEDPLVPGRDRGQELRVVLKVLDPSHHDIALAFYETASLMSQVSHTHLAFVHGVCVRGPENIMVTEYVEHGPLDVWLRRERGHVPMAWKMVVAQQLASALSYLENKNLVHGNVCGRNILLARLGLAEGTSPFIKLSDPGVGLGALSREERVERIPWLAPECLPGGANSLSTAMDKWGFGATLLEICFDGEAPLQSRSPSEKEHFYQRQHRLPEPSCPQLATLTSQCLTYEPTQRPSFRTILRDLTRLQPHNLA
Put plainly: TYK2 JH2 binding assay (KINOMEscan KdELECT competitive binding). Conditions: TYK2 JH2 domain, DiscoverX KINOMEscan KdELECT (Assay A); read-out: Biochemical TYK2_DiscoverX_JH2_BND_Kd. In short, it runs like this:
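The assay measures displacement of DNA- or phage-tagged TYK2 pseudokinase domain from an affinity resin; compound binding lowers the amount captured, read by qPCR. Incubation lasts 1 h at room temperature.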

Turning to `CNc1ncc(-c2nc3ccc(OC)cn3n2)c2cc(Nc3ccccn3)ncc12` [Example 523, 4-(6-methoxy-[1,2,4]triazolo[1,5-a]pyridin-2-yl)-N^1-methyl-N^6-(pyridin-2-yl)-2,7-naphthyridine-1,6-diamine], in assay [1], the pIC50 was at least 6.30. Also, the pKd at TYK2 JH2 is at least 7.00.
The corresponding values for `CNc1ncc(-c2nc3ccc(OC)cn3n2)c2cc(Nc3cccc(OC)n3)ncc12` [Example 524, 4-(6-methoxy-[1,2,4]triazolo[1,5-a]pyridin-2-yl)-N^6-(6-methoxypyridin-2-yl)-N^1-methyl-2,7-naphthyridine-1,6-diamine] are at least 6.30 and at least 7.00.
For `CNc1ncc(-c2nc3ccc(N4CCOCC4)cn3n2)c2cc(NC(=O)[C@H]3C[C@H]3C)ncc12` [Example 525, (1S,2R)-2-methyl-N-(8-(methylamino)-5-(6-morpholino-[1,2,4]triazolo[1,5-a]pyridin-2-yl)-2,7-naphthyridin-3-yl)cyclopropane-1-carboxamide] the same measures were at least 6.30 and at least 7.00.
The corresponding values for `CNc1ncc(-c2nc3ccc(N4CCOCC4)cn3n2)c2cc(NC(=O)C3(C)CC3)ncc12` [Example 526, 1-methyl-N-(8-(methylamino)-5-(6-morpholino-[1,2,4]triazolo[1,5-a]pyridin-2-yl)-2,7-naphthyridin-3-yl)cycloproapne-1-carboxamide] are at least 6.30 and at least 7.00.
Consider `CNc1ncc(-c2nc3ccc(N4CCOCC4)cn3n2)c2cc(NC(=O)C3(F)CC3)ncc12` [Example 527, 1-fluoro-N-(8-(methylamino)-5-(6-morpholino-[1,2,4]triazolo[1,5-a]pyridin-2-yl)-2,7-naphthyridin-3-yl)cyclopropane-1-carboxamide], for which the pIC50 in assay [1] is at least 6.30. On TYK2 JH2, the pKd is at least 7.00.
For `CNc1ncc(-c2nc3ccc(N4CCOCC4)cn3n2)c2cc(NC(=O)C3CCC3)ncc12` [Example 528, N-(8-(methylamino)-5-(6-morpholino-[1,2,4]triazolo[1,5-a]pyridin-2-yl)-2,7-naphthyridin-3-yl)cyclobutanecarboxamide] the same measures were at least 6.30 and at least 7.00.
Take `CNc1ncc(-c2nc3ccc(N4CCOCC4)cn3n2)c2cc(NC(=O)C3(OC)CC3)ncc12` [Example 529, 1-methoxy-N-(8-(methylamino)-5-(6-morpholino-[1,2,4]triazolo[1,5-a]pyridin-2-yl)-2,7-naphthyridin-3-yl)cyclopropane-1-carboxamide]: in assay [1], the pIC50 is at least 6.30. For the same molecule, on TYK2 JH2, the pKd was at least 7.00.
For `CNc1ncc(-c2nc3ccc(N4CCOCC4)cn3n2)c2cc(NC(=O)[C@@H]3C[C@@H]3C)ncc12` [Example 530, (1R,2S)-2-methyl-N-(8-(methylamino)-5-(6-morpholino-[1,2,4]triazolo[1,5-a]pyridin-2-yl)-2,7-naphthyridin-3-yl)cycloproapne-1-carboxamide] the same measures were at least 6.30 and at least 7.00.
As for `CNc1ncc(-c2nc3ccc(N4CCOCC4)cn3n2)c2cc(NC(=O)C3CC34CC4)ncc12` (stereo not drawn) [Example 531, N-(8-(methylamino)-5-(6-morpholino-[1,2,4]triazolo[1,5-a]pyridin-2-yl)-2,7-naphthyridin-3-yl)spiro[2.2]pentane-1-carboxamide], the pIC50 in assay [1] is at least 6.30. For the same molecule, the pKd on TYK2 JH2 is at least 7.00.
Consider `CNc1ncc(-c2nc3ccc(N4CCOCC4)cn3n2)c2cc(Nc3ccccn3)ncc12` [Example 536, N^1-methyl-4-(6-morpholino-[1,2,4]triazolo[1,5-a]pyridin-2-yl)-N^6-(pyridin-2-yl)-2,7-naphthyridine-1,6-diamine], for which the pIC50 in assay [1] was at least 6.30. In addition, on TYK2 JH2, the pKd was at least 7.00.
As for `CNc1ncc(-c2nc3ccc(N4CCOCC4)cn3n2)c2cc(Nc3ncccc3F)ncc12` [Example 537, N^6-(3-fluoropyridin-2-yl)-N^1-methyl-4-(6-morpholino-[1,2,4]triazolo[1,5-a]pyridin-2-yl)-2,7-naphthyridine-1,6-diamine], in assay [1], the pIC50 is at least 6.30. Besides, the pKd on TYK2 JH2 is at least 7.00.
For `CNc1ncc(-c2nc3ccc(N4CCOCC4)cn3n2)c2cc(Nc3ccc(C(C)(C)O)cn3)ncc12` [Example 538, 2-(6-((8-(methylamino)-5-(6-morpholino-[1,2,4]triazolo[1,5-a]pyridin-2-yl)-2,7-naphthyridin-3-yl)amino)pyridin-3-yl)propan-2-ol] the same measures were at least 6.30 and at least 7.00.
For `CNc1ncc(-c2nc3ccc(N4CCO[C@@H](C)C4)cn3n2)c2cc(NC(=O)[C@H]3C[C@H]3C)ncc12` [Example 539, (1S,2R)-2-methyl-N-(8-(methylamino)-5-(6-((S)-2-methylmorpholino)-[1,2,4]triazolo[1,5-a]pyridin-2-yl)-2,7-naphthyridin-3-yl)cyclopropane-1-carboxamide] the same measures were at least 6.30 and at least 7.00.
The corresponding values for `CNc1ncc(-c2nc3ccc(N4CCO[C@@H](C)C4)cn3n2)c2cc(NC(=O)C3(F)CC3)ncc12` [Example 540, (S)-1-fluoro-N-(8-(methylamino)-5-(6-(2-methylmorpholino)-[1,2,4]triazolo[1,5-a]pyridin-2-yl)-2,7-naphthyridin-3-yl)cyclopropane-1-carboxamide] are at least 6.30 and at least 7.00.
Take `CNc1ncc(-c2nc3ccc(N4CCO[C@@H](C)C4)cn3n2)c2cc(Nc3ccccn3)ncc12` [Example 543, (S)—N^1-methyl-4-(6-(2-methylmorpholino)-[1,2,4]triazolo[1,5-a]pyridin-2-yl)-N^6-(pyridin-2-yl)-2,7-naphthyridine-1,6-diamine]: in assay [1], the pIC50 was at least 6.30. For the same molecule, the pKd on TYK2 JH2 is at least 7.00.
The corresponding values for `CNc1ncc(-c2nc3ccc(N4CCO[C@@H](C)C4)cn3n2)c2cc(Nc3cc(C)n(C)n3)ncc12` [Example 544, (S)—N^6-(1,5-dimethyl-1H-pyrazol-3-yl)-N^1-methyl-4-(6-(2-methylmorpholino)-[1,2,4]triazolo[1,5-a]pyridin-2-yl)-2,7-naphthyridine-1,6-diamine] are at least 6.30 and at least 7.00.
The corresponding values for `CNc1ncc(-c2nc3ccc(N4CCO[C@@H](C)C4)cn3n2)c2cc(Nc3ccn(C)n3)ncc12` [Example 545, (S)—N^1-methyl-N^6-(1-methyl-1H-pyrazol-3-yl)-4-(6-(2-methylmorpholino)-[1,2,4]triazolo[1,5-a]pyridin-2-yl)-2,7-naphthyridine-1,6-diamine] are at least 6.30 and at least 7.00.
For `CNc1ncc(-c2nc3ccc(N4CCO[C@H](C)C4)cn3n2)c2cc(NC(=O)[C@@H]3C[C@@H]3C)ncc12` [Example 546, (1R,2S)-2-methyl 1N-(8-(methylamino)-5-(6-((R)-2-methylmorpholino)-[1,2,4]triazolo[1,5-a]pyridin-2-yl)-2,7-naphthyridin-3-yl)cyclopropane-1-carboxamide] the same measures were at least 6.30 and at least 7.00.
As for `CNc1ncc(-c2nc3ccc(N4CCO[C@H](C)C4)cn3n2)c2cc(NC(=O)[C@H]3C[C@H]3C)ncc12` [Example 547, (1S,2R)-2-methyl-N-(8-(methylamino)-5-(6-((R)-2-methylmorpholino)-[1,2,4]triazolo[1,5-a]pyridin-2-yl)-2,7-naphthyridin-3-yl)cyclopropane-1-carboxamide], the pIC50 in assay [1] is at least 6.30. The pKd on TYK2 JH2 was at least 7.00.
The corresponding values for `CNc1ncc(-c2nc3ccc(N4CCO[C@H](C)C4)cn3n2)c2cc(NC(=O)[C@H]3C[C@H]3F)ncc12` [Example 548, (1R,2R)-2-fluoro-N-(8-(methylamino)-5-(6-((R)-2-methylmorpholino)-[1,2,4]triazolo[1,5-a]pyridin-2-yl)-2,7-naphthyridin-3-yl)cyclopropane-1-carboxamide] are at least 6.30 and at least 7.00.
As to `CNc1ncc(-c2nc3ccc(N4CCO[C@H](C)C4)cn3n2)c2cc(NC(=O)[C@@H]3C[C@@H]3F)ncc12` [Example 549, (1S,2S)-2-fluoro-N-(8-(methylamino)-5-(6-((R)-2-methylmorpholino)-[1,2,4]triazolo[1,5-a]pyridin-2-yl)-2,7-naphthyridin-3-yl)cyclopropane-1-carboxamide], the pIC50 in assay [1] is at least 6.30. For the same molecule, the pKd on TYK2 JH2 was at least 7.00.
For the molecule `CNc1ncc(-c2nc3ccc(N4CCO[C@H](C)C4)cn3n2)c2cc(NC(=O)C3(F)CC3)ncc12` [Example 550, (R)-1-fluoro-N-(8-(methylamino)-5-(6-(2-methylmorpholino)-[1,2,4]triazolo[1,5-a]pyridin-2-yl)-2,7-naphthyridin-3-yl)cyclopropane-1-carboxamide], the pIC50 in assay [1] was at least 6.30. The pKd on TYK2 JH2 is at least 7.00.
For `CNc1ncc(-c2nc3ccc(N4CCO[C@H](C)C4)cn3n2)c2cc(Nc3ccccn3)ncc12` [Example 551, (R)—N^1-methyl-4-(6-(2-methylmorpholino)-[1,2,4]triazolo[1,5-a]pyridin-2-yl)-N^6-(pyridin-2-yl)-2,7-naphthyridine-1,6-diamine] the same measures were at least 6.30 and at least 7.00.
For `CNc1ncc(-c2nc3ccc(N4CCO[C@H](C)C4)cn3n2)c2cc(NC(=O)NC3CC3)ncc12` [Example 552, (R)-1-cyclopropyl-3-(8-(methylamino)-5-(6-(2-methylmorpholino)-[1,2,4]triazolo[1,5-a]pyridin-2-yl)-2,7-naphthyridin-3-yl)urea] the same measures were at least 6.30 and at least 7.00.
